Measured values from PubChem BioAssay (NCI).
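These data come from cells grown in 96-well plates and exposed to compound for 48 hours at five concentrations. The concentration for 50% growth inhibition is given as GI50. TGI marks complete inhibition of growth.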

Columns and labels:
Test in all cases: inhibition of tumour cell growth, NCI panel, 48 h
786-0 renal = tested on: 786-0 renal
A498 renal = tested on: A498 renal
A549 NSCLC = tested on: A549 NSCLC
ACHN renal = tested on: ACHN renal
BT-549 breast = tested on: BT-549 breast
CAKI-1 renal = tested on: CAKI-1 renal
CCRF-CEM leukemia = tested on: CCRF-CEM leukemia
DU-145 prostate = tested on: DU-145 prostate
EKVX NSCLC = tested on: EKVX NSCLC
HCC-2998 colon = tested on: HCC-2998 colon
HCT-116 colon = tested on: HCT-116 colon
HCT-15 colon = tested on: HCT-15 colon
HL-60(TB) leukemia = tested on: HL-60(TB) leukemia
HOP-62 NSCLC = tested on: HOP-62 NSCLC
HOP-92 NSCLC = tested on: HOP-92 NSCLC
HS 578T breast = tested on: HS 578T breast
HT29 colon = tested on: HT29 colon
IGROV1 ovarian = tested on: IGROV1 ovarian
K-562 leukemia = tested on: K-562 leukemia
KM12 colon = tested on: KM12 colon
LOX IMVI melanoma = tested on: LOX IMVI melanoma
M14 melanoma = tested on: M14 melanoma
MALME-3M melanoma = tested on: MALME-3M melanoma
MCF7 breast = tested on: MCF7 breast
MDA-MB-231 breast = tested on: MDA-MB-231 breast
MDA-MB-435 = tested on: MDA-MB-435
MOLT-4 leukemia = tested on: MOLT-4 leukemia
NCI-H226 lung = tested on: NCI-H226 lung
NCI-H23 lung = tested on: NCI-H23 lung
NCI-H460 lung = tested on: NCI-H460 lung
NCI/ADR-RES ovarian = tested on: NCI/ADR-RES ovarian
OVCAR-3 ovarian = tested on: OVCAR-3 ovarian
OVCAR-4 ovarian = tested on: OVCAR-4 ovarian
OVCAR-5 ovarian = tested on: OVCAR-5 ovarian
OVCAR-8 ovarian = tested on: OVCAR-8 ovarian
PC-3 prostate = tested on: PC-3 prostate
RPMI-8226 leukemia = tested on: RPMI-8226 leukemia
RXF 393 renal = tested on: RXF 393 renal
SF-268 CNS = tested on: SF-268 CNS
SF-295 CNS = tested on: SF-295 CNS
SF-539 CNS = tested on: SF-539 CNS
SK-MEL-2 melanoma = tested on: SK-MEL-2 melanoma
SK-MEL-28 melanoma = tested on: SK-MEL-28 melanoma
SK-MEL-5 melanoma = tested on: SK-MEL-5 melanoma
SK-OV-3 ovarian = tested on: SK-OV-3 ovarian
SN12C renal = tested on: SN12C renal
SNB-19 CNS = tested on: SNB-19 CNS
SNB-75 CNS = tested on: SNB-75 CNS
SW-620 colon = tested on: SW-620 colon
T-47D breast = tested on: T-47D breast
TK-10 renal = tested on: TK-10 renal
U251 CNS = tested on: U251 CNS
UACC-257 melanoma = tested on: UACC-257 melanoma
UACC-62 melanoma = tested on: UACC-62 melanoma
UO-31 renal = tested on: UO-31 renal

## IP(CCCSc1n(Cc2ccc3ccccc3c2)c(-c2ccccc2)c(-c2ccccc2)[n+]1Cc1ccc2ccccc2c1)(c1ccccc1)(c1ccccc1)c1ccccc1
786-0 renal
  GI50: 5.81 µM
  TGI: 40.1 µM
A498 renal
  GI50: 3.88 µM
  TGI: 29.4 µM
A549 NSCLC
  GI50: 4.49 µM
  TGI: 36.1 µM
ACHN renal
  GI50: 20.2 µM
  TGI: 96.4 µM
BT-549 breast
  GI50: 2.6 µM
  TGI: 7.25 µM
CAKI-1 renal
  GI50: 9.96 µM
  TGI: 31.7 µM
CCRF-CEM leukemia
  GI50: 3.11 µM
  TGI: 12 µM
DU-145 prostate
  GI50: 3.57 µM
  TGI: 23.9 µM
EKVX NSCLC
  GI50: 4.43 µM
  TGI: 43.1 µM
HCC-2998 colon
  GI50: 3.74 µM
  TGI: 16.3 µM
HCT-116 colon
  GI50: 2.99 µM
  TGI: 10.6 µM
HCT-15 colon
  GI50: 19.6 µM
  TGI: > 100 µM
HL-60(TB) leukemia
  GI50: 1.9 µM
  TGI: 3.86 µM
HOP-62 NSCLC
  GI50: 3.3 µM
  TGI: 23.4 µM
HOP-92 NSCLC
  GI50: 1.69 µM
  TGI: 6.48 µM
HS 578T breast
  GI50: 3.04 µM
  TGI: 14.1 µM
HT29 colon
  GI50: 2.52 µM
  TGI: 7.14 µM
IGROV1 ovarian
  GI50: 2.96 µM
  TGI: > 100 µM
K-562 leukemia
  GI50: 3.05 µM
  TGI: 10.4 µM
KM12 colon
  GI50: 2.45 µM
  TGI: 6.23 µM
LOX IMVI melanoma
  GI50: 1.94 µM
  TGI: 4.49 µM
M14 melanoma
  GI50: 3.34 µM
  TGI: 23 µM
MALME-3M melanoma
  GI50: 2.37 µM
  TGI: 8.23 µM
MCF7 breast
  GI50: 2.77 µM
  TGI: 9 µM
MDA-MB-231 breast
  GI50: 2.81 µM
  TGI: 9.58 µM
MDA-MB-435
  GI50: 2.84 µM
  TGI: 11 µM
MOLT-4 leukemia
  GI50: 3.05 µM
  TGI: 11.5 µM
NCI-H226 lung
  GI50: 12.2 µM
  TGI: 98.2 µM
NCI-H23 lung
  GI50: 2.34 µM
  TGI: 7.13 µM
NCI-H460 lung
  GI50: 2.53 µM
  TGI: 6.25 µM
NCI/ADR-RES ovarian
  GI50: 17.3 µM
  TGI: > 100 µM
OVCAR-3 ovarian
  GI50: 2.81 µM
  TGI: 8.86 µM
OVCAR-4 ovarian
  GI50: 3.16 µM
  TGI: 22.5 µM
OVCAR-5 ovarian
  GI50: 3.59 µM
  TGI: 17.4 µM
OVCAR-8 ovarian
  GI50: 5.62 µM
  TGI: > 100 µM
PC-3 prostate
  GI50: 2.84 µM
  TGI: 10.8 µM
RPMI-8226 leukemia
  GI50: 2.49 µM
  TGI: 6.81 µM
RXF 393 renal
  GI50: 2.8 µM
  TGI: 9.44 µM
SF-268 CNS
  GI50: 3.42 µM
  TGI: 20.3 µM
SF-295 CNS
  GI50: 3.3 µM
  TGI: 16.2 µM
SF-539 CNS
  GI50: 3.08 µM
  TGI: 9.57 µM
SK-MEL-2 melanoma
  GI50: 2.05 µM
  TGI: 5.41 µM
SK-MEL-28 melanoma
  GI50: 3.25 µM
  TGI: 15.9 µM
SK-MEL-5 melanoma
  GI50: 2.42 µM
  TGI: 5.91 µM
SK-OV-3 ovarian
  GI50: 3.9 µM
  TGI: 38.4 µM
SN12C renal
  GI50: 4.07 µM
  TGI: 17.4 µM
SNB-19 CNS
  GI50: 2.39 µM
  TGI: 16.7 µM
SNB-75 CNS
  GI50: 2.03 µM
  TGI: 9.21 µM
SW-620 colon
  GI50: 3.56 µM
  TGI: 21.9 µM
T-47D breast
  GI50: 2.89 µM
  TGI: 14.1 µM
TK-10 renal
  GI50: 8.12 µM
  TGI: 59 µM
U251 CNS
  GI50: 3.26 µM
  TGI: > 100 µM
UACC-257 melanoma
  GI50: 2.89 µM
  TGI: 9.64 µM
UACC-62 melanoma
  GI50: 2.35 µM
  TGI: 7.91 µM
UO-31 renal
  GI50: 5.55 µM
  TGI: > 100 µM
